# Molecular target: Escherichia coli DNA gyrase A/B tetramer (Escherichia coli, UniProt P0AES4+P0AES6)
# Test: DNA gyrase supercoiling activity fluorescence polarisation assay
# Type: biochemical
# Details: not given
# Protocol: In a black, 384-well polystyrene assay plate, 30 microliters/well of 5 nM Escherichia coli DNA gyrase A/B tetramer and 130 micrograms/ml of topologically relaxed plasmid containing the triplex-forming sequence […] in an assay buffer consisting of 35 mM Tris-HCl (pH 7.5), 24 mM KCl, 4 mM MgCl2, 2 mM dithiothreitol, 1.8 mM spermidine, 5% (v/v) glycerol, 200 nM bovine serum albumin, 0.8% dimethylsulfoxide, and 0.3 mM ATP may be incubated at ambient temperature for (typically 30 minutes) in the absence or presence of 5-10 different concentrations of test compound. The supercoiling reactions may be quenched by the addition of 10 microliters/well of 40 nM oligodeoxynucleotide probe in 3× triplex-forming buffer consisting of 150 mM NaCl, and 150 mM sodium acetate at pH 3.5. The oligodeoxynucleotide probe may be 5′-BODIPY-FL-labeled TTCTTCTTC. After 60 minutes, the fluorescence anisotropy of the BODIPY-FL may be measured in a Tecan Ultra plate reader, using 485 nm excitation and 535 nm emission filters equipped with polarizers. The IC50 may be determined by nonliner regression using two control reactions. The first contains no test compound but 0.8% DMSO (100% activity) while the second control reaction contains 5 uM Ciprofloxacin and 0.8% DMSO (0% activity).
# When tested in an in-vitro assay based on the DNA gyrase supercoiling activity fluorescence polarisation assay described above, the E. coli DNA gyrase supercoiling IC50 assay inhibitory activity of the following Examples was measured at the indicated IC50.
# Sequence of Escherichia coli DNA gyrase A/B tetramer (P0AES4 whole entry, one chain of several): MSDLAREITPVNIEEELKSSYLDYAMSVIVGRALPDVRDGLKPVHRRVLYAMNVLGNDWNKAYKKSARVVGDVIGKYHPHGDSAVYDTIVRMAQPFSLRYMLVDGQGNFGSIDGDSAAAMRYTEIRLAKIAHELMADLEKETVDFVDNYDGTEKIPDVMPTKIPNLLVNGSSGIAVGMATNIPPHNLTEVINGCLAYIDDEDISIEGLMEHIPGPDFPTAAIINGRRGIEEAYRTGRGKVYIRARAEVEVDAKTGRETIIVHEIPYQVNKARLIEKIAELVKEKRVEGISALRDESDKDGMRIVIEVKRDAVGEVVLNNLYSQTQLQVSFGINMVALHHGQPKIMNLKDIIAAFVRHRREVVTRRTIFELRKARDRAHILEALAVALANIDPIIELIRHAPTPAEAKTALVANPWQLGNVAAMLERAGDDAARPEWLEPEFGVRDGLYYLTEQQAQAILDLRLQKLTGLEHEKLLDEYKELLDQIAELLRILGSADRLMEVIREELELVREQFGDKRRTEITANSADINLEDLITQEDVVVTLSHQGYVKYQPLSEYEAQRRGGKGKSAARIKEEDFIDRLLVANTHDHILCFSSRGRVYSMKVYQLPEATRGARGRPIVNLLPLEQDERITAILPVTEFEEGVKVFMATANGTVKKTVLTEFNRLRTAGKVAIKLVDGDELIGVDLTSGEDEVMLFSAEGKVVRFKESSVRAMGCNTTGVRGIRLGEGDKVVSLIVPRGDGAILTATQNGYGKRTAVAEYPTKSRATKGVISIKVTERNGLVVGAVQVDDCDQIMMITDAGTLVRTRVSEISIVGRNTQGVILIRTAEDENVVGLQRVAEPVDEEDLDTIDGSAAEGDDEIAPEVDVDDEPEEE
row,SMILES,IC50
1,"C[C@@H]1CN2c3c(cc(C(=O)NC4CCOCC4)c(F)c3F)CC3(C(=O)NC(=O)NC3=O)[C@H]2[C@H](C)O1 (relative stereo) [Example 66, (2R,4S,4aS)-rel-9,10-Difluoro-2,4-dimethyl-2′,4′,6′-trioxo-N-(tetrahydro-2H-pyran-4-yl)-1,1′,2,3′,4,4′,4a,6′-octahydro-2′H,6H-spiro[1,4-oxazino[4,3-a]quinoline-5,5′-pyrimidine]-8-carboxamide]",5860 nM
2,"C[C@H]1CN2c3c(cc(C#Cc4cccs4)c(F)c3F)CC3(C(=O)NC(=O)NC3=O)[C@@H]2[C@@H](C)O1 (relative stereo) [Example 10, (2S,4R,4aR)-rel-9,10-Difluoro-2,4-dimethyl-8-(thiophen-2-ylethynyl)-1,2,4,4a-tetrahydro-2′H,6H-spiro[1,4-oxazino[4,3-a]quinoline-5,5′-pyrimidine]-2′,4′,6′(1′H,3′H)-trione]",1450 nM
3,"C[C@@H]1CN2c3c(cc(C#Cc4ccc(-c5ccn[nH]5)s4)c(F)c3F)CC3(C(=O)NC(=O)NC3=O)[C@H]2[C@H](C)O1 (relative stereo) [Example 17, (2R,4S,4aS)-rel-9,10-Difluoro-2,4-dimethyl-8-{[5-(1H-pyrazol-5-yl)thiophen-2-yl]ethynyl}-1,2,4,4a-tetrahydro-2′H,6H-spiro[1,4-oxazino[4,3-a]quinoline-5,5′-pyrimidine]-2′,4′,6′(1′H,3′H)-trione]",1840 nM
4,"C[C@@H]1CN2c3cc(F)c(C#Cc4nccs4)cc3CC3(C(=O)NC(=O)NC3=O)[C@H]2[C@H](C)O1 (relative stereo) [Example 26, (2R,4S,4aS)-rel-9-Fluoro-2,4-dimethyl-8-(1,3-thiazol-2-ylethynyl)-1,2,4,4a-tetrahydro-2′H,6H-spiro[1,4-oxazino[4,3-a]quinoline-5,5′-pyrimidine]-2′,4′,6′(1′H,3′H)-trione]",1080 nM
5,"C[C@H]1CN2c3c(cc(C#Cc4nccs4)c(F)c3F)CC3(C(=O)NC(=O)NC3=O)[C@@H]2[C@@H](C)O1 (relative stereo) [Example 8, (2S,4R,4aR)-rel-9,10-Difluoro-2,4-dimethyl-8-(1,3-thiazol-2-ylethynyl)-1,2,4,4a-tetrahydro-2′H,6H-spiro[1,4-oxazino[4,3-a]quinoline-5,5′-pyrimidine]-2′,4′,6′(1′H,3′H)-trione]",1290 nM
6,"CNC(=O)Nc1ccc2c(c1)CC1(C(=O)NC(=O)NC1=O)[C@H]1[C@H](C)O[C@H](C)CN21 (relative stereo) [Example 78, 1-[(2R,4S,4aS)-rel-2,4-Dimethyl-2′,4′,6′-trioxo-1,1′,2,3′,4,4′,4a,6′-octahydro-2′H,6H-spiro[1,4-oxazino[4,3-a]quinoline-5,5′-pyrimidin]-8-yl]-3-methylurea]",8650 nM
7,"C[C@@H]1CN2c3c(cc(C(=O)NC4CCOC4)c(F)c3F)CC3(C(=O)NC(=O)NC3=O)[C@H]2[C@H](C)O1 (relative stereo) [Example 64, (2R,4S,4aS)-rel-9,10-Difluoro-2,4-dimethyl-2′,4′,6′-trioxo-N-(tetrahydrofuran-3-yl)-1,1′,2,3′,4,4′,4a,6′-octahydro-2′H,6H-spiro[1,4-oxazino[4,3-a]quinoline-5,5′-pyrimidine]-8-carboxamide]",5050 nM
8,"CC(=O)N/N=C/c1cc2c(c(F)c1F)N1C[C@@H](C)O[C@@H](C)[C@@H]1C1(C2)C(=O)NC(=O)NC1=O (relative stereo) [Example 23, N′-{(E)-[(2R,4S,4aS)-rel-9,10-Difluoro-2,4-dimethyl-2′,4′,6′-trioxo-1,1′,2,3′,4,4′,4a,6′-octahydro-2′H,6H-spiro[1,4-oxazino[4,3-a]quinoline-5,5′-pyrimidin]-8-yl]methylidene}acetohydrazide]",1030 nM
9,"C[C@@H]1CN2c3c(F)cc(C#Cc4nncs4)cc3CC3(C(=O)NC(=O)NC3=O)[C@H]2[C@H](C)O1 (relative stereo) [Example 36, (2R,4S,4aS)-rel-10-Fluoro-2,4-dimethyl-8-(1,3,4-thiadiazol-2-ylethynyl)-1,2,4,4a-tetrahydro-2′H,6H-spiro[1,4-oxazino[4,3-a]quinoline-5,5′-pyrimidine]-2′,4′,6′(1′H,3′H)-trione]",710 nM
10,"C/C(=N\N1CC(=O)NC1=O)c1cc2c(c(F)c1F)N1C[C@@H](C)O[C@@H](C)[C@@H]1C1(C2)C(=O)NC(=O)NC1=O (relative stereo) [Example 52, (2R,4S,4aS)-rel-8-[(1E)-N-(2,4-Dioxoimidazolidin-1-yl)ethanimidoyl]-9,10-difluoro-2,4-dimethyl-1,2,4,4a-tetrahydro-2′H,6H-spiro[1,4-oxazino[4,3-a]quinoline-5,5′-pyrimidine]-2′,4′,6′(1′H,3′H)-trione]",12800 nM
11,"CC(=O)N/N=C(\C)c1cc2c(c(F)c1F)N1C[C@@H](C)O[C@@H](C)[C@@H]1C1(C2)C(=O)NC(=O)NC1=O (relative stereo) [Example 48, N′-{(1E)-1-[(2R,4S,4aS)-rel-9,10-Difluoro-2,4-dimethyl-2′,4′,6′-trioxo-1,1′,2,3′,4,4′,4a,6′-octahydro-2′H,6H-spiro[1,4-oxazino[4,3-a]quinoline-5,5′-pyrimidin]-8-yl]ethylidene}acetohydrazide]",1300 nM
12,"C/C(=N\Nc1ccccn1)c1cc2c(c(F)c1F)N1C[C@@H](C)O[C@@H](C)[C@@H]1C1(C2)C(=O)NC(=O)NC1=O (relative stereo) [Example 57, (2R,4S,4aS)-rel-9,10-Difluoro-2,4-dimethyl-8-{(1E)-1-[2-(pyridin-2-yl)hydrazinylidene]ethyl}-1,2,4,4a-tetrahydro-2′H,6H-spiro[1,4-oxazino[4,3-a]quinoline-5,5′-pyrimidine]-2′,4′,6′(1′H,3′H)-trione]",850 nM
13,"Cc1nnc(C#Cc2cc3c(c(F)c2F)N2C[C@H](C)O[C@H](C)[C@H]2C2(C3)C(=O)NC(=O)NC2=O)s1 (relative stereo) [Example 5, (2S,4R,4aR)-rel-9,10-Difluoro-2,4-dimethyl-8-[(5-methyl-1,3,4-thiadiazol-2-yl)ethynyl]-1,2,4,4a-tetrahydro-2′H,6H-spiro[1,4-oxazino[4,3-a]quinoline-5,5′-pyrimidine]-2′,4′,6′(1′H,3′H)-trione]",1880 nM
14,"C[C@@H]1CN2c3ccc(C#Cc4ccncc4)cc3CC3(C(=O)NC(=O)NC3=O)[C@H]2[C@H](C)O1 (relative stereo) [Example 3, (2R,4S,4aS)-rel-2,4-Dimethyl-8-(pyridin-4-ylethynyl)-1,2,4,4a-tetrahydro-2′H,6H-spiro[1,4-oxazino[4,3-a]quinoline-5,5′-pyrimidine]-2′,4′,6′(1′H,3′H)-trione]",2480 nM
15,"C[C@@H]1CN2c3cc(F)c(C#Cc4cccnc4)cc3CC3(C(=O)NC(=O)NC3=O)[C@H]2[C@H](C)O1 (relative stereo) [Example 32, (2R,4S,4aS)-rel-9-Fluoro-2,4-dimethyl-8-(pyridin-3-ylethynyl)-1,2,4,4a-tetrahydro-2′H,6H-spiro[1,4-oxazino[4,3-a]quinoline-5,5′-pyrimidine]-2′,4′,6′(1′H,3′H)-trione]",2240 nM
16,"C[C@@H]1CN2c3c(F)cc(C#Cc4nccs4)cc3CC3(C(=O)NC(=O)NC3=O)[C@H]2[C@H](C)O1 (relative stereo) [Example 38, (2R,4S,4aS)-rel-10-Fluoro-2,4-dimethyl-8-(1,3-thiazol-2-ylethynyl)-1,2,4,4a-tetrahydro-2′H,6H-spiro[1,4-oxazino[4,3-a]quinoline-5,5′-pyrimidine]-2′,4′,6′(1′H,3′H)-trione]",760 nM
17,"C[C@H]1CN2c3c(cc(C#Cc4cnccn4)c(F)c3F)CC3(C(=O)NC(=O)NC3=O)[C@@H]2[C@@H](C)O1 (relative stereo) [Example 20, (2S,4R,4aR)-rel-9,10-Difluoro-2,4-dimethyl-8-(pyrazin-2-ylethynyl)-1,2,4,4a-tetrahydro-2′H,6H-spiro[1,4-oxazino[4,3-a]quinoline-5,5′-pyrimidine]-2′,4′,6′(1′H,3′H)-trione]",490 nM
18,"CCNC(=O)Nc1ccc2c(c1)CC1(C(=O)NC(=O)NC1=O)[C@H]1[C@H](C)O[C@H](C)CN21 (relative stereo) [Example 72, 1-[(2R,4S,4aS)-rel-2,4-Dimethyl-2′,4′,6′-trioxo-1,1′,2,3′,4,4′,4a,6′-octahydro-2′H,6H-spiro[1,4-oxazino[4,3-a]quinoline-5,5′-pyrimidin]-8-yl]-3-ethylurea]",10400 nM

# Same assay, conditions: 5 nM enzyme, 0.3 mM ATP, relaxed plasmid, fluorescence anisotropy readout; read-out: E. coli DNA gyrase supercoiling IC50
row,SMILES,IC50
1,"C[C@@H]1CN2c3cc(F)c(C#Cc4nccn4C)cc3C(=O)C3(CNC(=O)NC3=O)[C@H]2[C@H](C)O1 (relative stereo) [Example 30, (2R,4S,4aS)-rel-9-Fluoro-2,4-dimethyl-8-[(1-methyl-1H-imidazol-2-yl)ethynyl]-1,2,4,4a-tetrahydro-2′H,6H-spiro[1,4-oxazino[4,3-a]quinoline-5,5′-pyrimidine]-2′,4′,6(1′H,3′H)-trione]",1150 nM
2,"C[C@@H]1CN2c3c(F)cc(C#Cc4cncs4)cc3CC3(C(=O)NC(=O)NC3=O)[C@H]2[C@H](C)O1 (relative stereo) [Example 39, (2R,4S,4aS)-rel-10-Fluoro-2,4-dimethyl-8-(1,3-thiazol-5-ylethynyl)-1,2,4,4a-tetrahydro-2′H,6′-spiro[1,4-oxazino[4,3-a]quinoline-5,5′-pyrimidine]-2′,4′,6′(1′H,3′H)-trione]",870 nM
